Test results reported in patent publication US20070123592A1, “Terephthalamide peptidomimetic compounds and methods” (YALE UNIVERSITY, priority 2004, published 2007).
“And” between values parts separate entries of the source, which are not always exact repeats. Equal values may be shown once.

Assays:
Bcl-xL/Bak complex = target: T1, Bcl-xL/Bak complex (Homo sapiens, UniProt Q07817); assay: Fluorescence polarization competition assay (displacement of fluorescein-labeled Bak peptide from Bcl-xL); assay type: binding; details: for Ki / K1 ± S.D.: 15 nM Fl-Bak, 184 nM Bcl-xL, 10 mM PBS pH 7.4, 25° C., mean of three independent experiments; for Ki: read-out: K1 ± S.D.; for affinity / activity in disrupting the Bcl-xL/Bak interaction (in words): summary of Table 1
T1 construct: made in house
T1 sequence (Q07817 whole entry, species assumed, one chain of several): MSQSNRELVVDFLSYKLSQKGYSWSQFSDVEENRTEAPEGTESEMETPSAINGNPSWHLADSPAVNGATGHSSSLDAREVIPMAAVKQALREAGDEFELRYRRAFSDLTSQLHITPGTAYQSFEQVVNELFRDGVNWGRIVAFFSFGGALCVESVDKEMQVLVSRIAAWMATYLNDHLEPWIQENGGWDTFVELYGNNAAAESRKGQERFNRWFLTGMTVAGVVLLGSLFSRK
Description: Fluorescence polarization experiments were conducted on a Photon Technology International instrument using a 0.3 cm path length cuvette.

15N-labeled Bcl-xL = 15N-labeled Bcl-xL (Homo sapiens, UniProt Q07817); assay: (15N,1H)-2D-HSQC amide chemical shift perturbation mapping; assay type: binding; details: 2 mM Bcl-xL, 0, 1, 2 mM compound, 10% DMSO/D2O, 25° C., PBS pH 7.0
15N-labeled Bcl-xL, sequence (Q07817 whole entry): as the sequence (Q07817 whole entry, species assumed, one chain of several) above
Description: (^15N, ^1H)-2D-HSQC spectra were recorded on a Varian DPX-600 spectrometer. The concentration of Bcl-xL was 2 mM, with 0, 1 mM, 2 mM 3-26, respectively, in 10% DMSO/D2O (25° C., 10.0 mM PBS, pH 7.0).
To structurally probe the binding mode of the terephthalamide, (^15N, ^1H)-2D-amide chemical shift perturbation mapping with ^15N-labeled Bcl-xL were performed as above. Addition of compound 3-26 led to shifts in a number of residues on the surface of Bcl-xL. […] These affected residues all lie in the shallow cleft on the protein into which the Bak helix binds.

Structure (SMILES)	Ki (Bcl-xL/Bak complex)	affinity / activity in disrupting the Bcl-xL/Bak interaction (in words) (Bcl-xL/Bak complex)	further results
CC(C)Oc1cc(C(=O)N(C)C)ccc1C(=O)N[C@@H](Cc1ccccc1)C(=O)O [Compound 3-35, (S)-2-(4-Dimethylcarbamoyl-2-isopropoxy-benzoylamino)-3-phenyl-propionic acid]	8.92 ± 3.59 µM	–	–
CC(C)CC(NC(=O)c1ccc(C(=O)NCC(=O)O)cc1O)C(=O)O (centres unmarked) [Compound 3-46]	–	–	K1 ± S.D. (Bcl-xL/Bak complex): No affinity
COC(=O)[C@H](CC(C)C)NC(=O)c1ccc(C(=O)N(C(C)C)C(C)C)cc1OC [Compound 3-26, (S)-2-(4-Diisopropylcarbamoyl-2-methoxy-benzoylamino)-4-methyl-pentanoic acid methyl ester]	1.85 ± 0.318 µM	–	amide chemical shift changes of Bcl-xL residues on addition of inhibitor (15N-labeled Bcl-xL): significant chemical shift changes
CC(C)C[C@H](NC(=O)c1ccc(C(=O)N(C(C)C)C(C)C)cc1NC(C)C)C(=O)O [Compound 3-17, (S)-2-(4-Diisopropylcarbamoyl-2-isopropylamino-benzoylamino)-4-methyl-pentanoic acid]	3.31 ± 0.345 µM	–	affinity less than 2-isopropoxy analogue 3-10 (Bcl-xL/Bak complex; relative to 3-10): 4 fold
COC(=O)[C@H](C)NC(=O)c1ccc(C(=O)N(C)C)cc1OC(C)C [Compound 3-33, (S)-2-(4-Dimethylcarbamoyl-2-isopropoxy-benzoylamino)-propionic acid methyl ester]	8.34 ± 1.61 µM	–	–
COC(=O)[C@H](CC(C)C)NC(=O)c1ccc(C(=O)N(C(C)C)C(C)C)cc1OC(C)C [Compound 3-9, (S)-2-(4-Diisopropylcarbamoyl-2-isopropoxy-benzoylamino)-4-methyl-pentanoic acid methyl ester]	0.78 µM and 0.781 µM	low micro-molar Ki values	–
CC(C)C[C@H](NC(=O)c1ccc(C(=O)N(C(C)C)C(C)C)cc1OC(C)C)C(=O)O [Compound 3-10]	0.839 ± 0.171 µM	–	–
CCN(CC)C(=O)c1ccc(C(=O)N[C@@H](C)C(=O)OC)c(OC(C)C)c1 [Compound 3-37, (S)-2-(4-Diethylcarbamoyl-2-isopropoxy-benzoylamino)-propionic acid methyl ester]	2.44 ± 0.947 µM	low micro-molar Ki values	–
COC(=O)[C@H](CC(C)C)NC(=O)c1ccc(C(=O)N(CC(C)C)[C@@H](C)C(=O)OC)cc1OC(C)C [Compound 3-22, (S)-2-{4-[Isobutyl-((S)-1-methoxycarbonyl-ethyl)-carbamoyl]-2-isopropoxy-benzoylamino}-4-methyl-pentanoic acid methyl ester]	–	did not show activity	K1 ± S.D. (Bcl-xL/Bak complex): No affinity

Further lines, with some results ahead:

Ki (Bcl-xL/Bak complex)	affinity / activity in disrupting the Bcl-xL/Bak interaction (in words) (Bcl-xL/Bak complex)	Structure (SMILES)	further results
138 ± 49.5 µM	–	COC(=O)[C@@H](NC(=O)c1ccc(C(=O)N(CC(C)C)CC(C)C)cc1OC(C)C)C(C)C [Compound 3-41, (S)-2-(4-Diisobutylcarbamoyl-2-isopropoxy-benzoylamino)-3-methyl-butyric acid methyl ester]	–
260 ± 58 µM	most of the affinity was lost	CC(C)Oc1cc(C(=O)N(c2ccccc2)c2ccccc2)ccc1C(=O)N[C@@H](C)C(=O)O [Compound 3-42, (S)-2-(4-Diphenylcarbamoyl-2-isopropoxy-benzoylamino)-propionic acid]	–
11.4 ± 5.09 µM	–	CCN(CC)C(=O)c1ccc(C(=O)N[C@@H](CC(C)C)C(=O)OC)c(OC(C)C)c1 [Compound 3-38, (S)-2-(4-Diethylcarbamoyl-2-isopropoxy-benzoylamino)-4-methyl-pentanoic acid methyl ester]	–
–	most of the affinity was lost	CC(C)Oc1cc(C(=O)N(c2ccccc2)c2ccccc2)ccc1C(=O)N[C@@H](Cc1ccccc1)C(=O)O [Compound 3-45, (S)-2-(4-Diphenylcarbamoyl-2-isopropoxy-benzoylamino)-3-phenyl-propionic acid]	K1 ± S.D. (Bcl-xL/Bak complex): No affinity
780 ± 174 µM	most of the affinity was lost	CC(C)C[C@H](NC(=O)c1ccc(C(=O)N(c2ccccc2)c2ccccc2)cc1OC(C)C)C(=O)O [Compound 3-43, (S)-2-(4-Diphenylcarbamoyl-2-isopropoxy-benzoylamino)-4-methyl-pentanoic acid]	–
–	most of the affinity was lost	COC(=O)[C@H](CC(C)C)NC(=O)c1ccc(C(=O)N(c2ccccc2)c2ccccc2)cc1OC(C)C [Compound 3-44, (S)-2-(4-Diphenylcarbamoyl-2-isopropoxy-benzoylamino)-4-methyl-pentanoic acid methyl ester]	K1 ± S.D. (Bcl-xL/Bak complex): No affinity
8.76 ± 2.78 µM	–	COC(=O)[C@H](C)NC(=O)c1ccc(C(=O)N(CC(C)C)CC(C)C)cc1OC(C)C [Compound 3-39, (S)-2-(4-Diisobutylcarbamoyl-2isopropoxy-benzoylamino)-propionic acid methyl ester]	–
8.36 ± 3.8 µM	–	COC(=O)[C@H](CC(C)C)NC(=O)c1ccc(C(=O)N(CC(C)C)CC(C)C)cc1OC(C)C [Compound 3-40, (S)-2-(4-Diisobutylcarbamoyl-2-isopropoxy-benzoylamino)-4-methyl-pentanoic acid methyl ester]	–
